According to patent publication US20200385789A1, “METHODS OF ASSESSING TELOMERES” (Children's Medical Research Institute, priority 2017, published 2020):

Tested on: IMR90 primary human foetal lung fibroblasts
Assay: Telomere length by telomere fibre-FISH (TFF) after exposure of cells to inhibitors
Format: cell-based
Details: 0.1 μM aphidicolin and/or 0.2 μM INK128, harvested 7 days after exposure, versus DMSO alone (untreated)
Experimental: IMR90 primary human foetal lung fibroblasts were plated and 1 day later were exposed to aphidicolin, mTORi, aphidicolin+mTORi, or DMSO alone (untreated). Cells were harvested a further 7 days later and telomere length was assessed by TFF. (A) Representative imaging data of DNA fibres: Left panel—expanded view of telomere fibre fish imaging data. Center and right panels—close up of the boxes 1-5 shown on the left panel. Boxes are drawn around the telomere signals and the length in μm and kb is indicated. (B). Telomere length presented in a Tukey box plot. “+” is the mean, **=P<0.01. TFF was used to measure telomere length in cells exposed to one or both of two inhibitors: aphidicolin and an mTOR inhibitor. Cells (IMR90 primary human foetal lung fibroblasts) were plated and one day later were exposed to 0.1 μM aphidicolin, 0.2 μM of INK128 (an mTOR inhibitor), aphidicolin+INK128, or DMSO alone (untreated). Cells were harvested a further 7 days later and telomere length was assessed by TFF, essentially as described above.

Row | SMILES | Telomere length compared with untreated cells
1 | CC(C)n1nc(-c2ccc3oc(N)nc3c2)c2c(N)ncnc21 [INK128] | telomere length in untreated cells was significantly greater
2 | C[C@@]1(CO)[C@H](O)CC[C@@]2(C)[C@H]1CC[C@H]1C[C@@H]3C[C@@]12CC[C@]3(O)CO [aphidicolin] | telomere length in untreated cells was significantly greater
